Assay results taken from patent US20100210467A1, “AGENT FOR IMPROVING SUGARCANE BRIX AND METHOD OF PROMOTING SUGARCANE RIPENING USING THE SAME” (Kumiai Chemical Industry Co., Ltd., priority 2007, published 2010).

Experiments:
Format in all cases: in vivo
sugarcane [1] = test: Example 3: sugar content of sugarcane stem juice after pyrimisulfan back pack spraying, field test in Brazil; settings: 40 g/ha
Description: (§1) In accordance with “NORMAS DE AVALIAçÃO DA […] DA CANA-DE-AçÚCAR” used in Brazilian sugar refining plants as Standard for quality evaluation of sugarcane, the analysis on the sugar content in the squeezed juice of sugarcane stem was carried out for Brix value, sugar content in sugarcane (PC), and total sugar amount recoverable from sugarcane stem (ATR) as follows.
(§2) Brix was measured according to a digital refractometer. PC was calculated according to the equation (1). ATR was calculated according to the equation (5).
At the time the Brix value of sugarcane grown in a sugarcane cultivated area in Brazil (an average Brix value in the harvesttime being 18%) became 88% of the aforesaid average Brix value, pyrimisulfan (pyrimisulfan prepared by a method disclosed in JP2000-44546A) was diluted with water so that the amount of the effective ingredient in 105 liters of the spraying liquid could be equal to the used amount shown in Table 4, and the liquid was sprayed above the plant by the aid of a CO2-pressurized back pack sprayer to the test area at a rate of 105 liters per hectare.
(§3) In a control area, a known sulfometuron-methyl formulation (a commercially available product, a tradename “CURAVIAL”) was similarly sprayed.
(§4) Next, 20 individual sugarcanes were cut from each area on the initial day of spraying, after 15 days of spraying, after 30 days of spraying and after 45 days of spraying, and thereafter the stems were squeezed and sugar was recovered from the juice to obtain the yield. Each yield was compared with the yield of the initial day of spraying and the rate of increase (%) was calculated. The analysis on the sugar content in the squeezed juice of sugarcane stems was carried out similarly as in the case of Example 1.

sugarcane [2] = test: Example 5: sugar content of sugarcane stem juice after bispyribac-sodium and/or gibberellin spraying, field test in Brazil; settings: 10 g/ha
Description: as §1, §2
At the time the Brix value of sugarcane grown in a sugarcane cultivated area in Brazil (an average Brix value in the harvesttime being 18%) became 88% of the aforesaid average Brix value, a bispyribac-sodium formulation (a commercially available product, a tradename, “NOMINEE 400SC”) and a gibberellin formulation (a commercially available product, a tradename, “PRO-GIBB”) were admixed together and diluted with water or separately diluted with water so that the amount of the effective ingredient in 105 liters of each of the spraying liquids could be equal to the used amount shown in Table 8, and each liquid was sprayed above the plant by the aid of a CO2-pressurized back pack sprayer to the test area at a rate of 105 liters per hectare.
as §3, §4

sugarcane [3] = test: Example 4: sugar content of sugarcane stem juice after pyribenzoxim back pack spraying, field test in Brazil; settings: 40 g/ha
Description: as §1, §2
At the time the Brix value of sugarcane grown in a sugarcane cultivated area in Brazil (an average Brix value in the harvesttime being 20%) became 86% of the aforesaid average Brix value, a pyribenzoxim formulation (a tradename “PYANCHOR”) was diluted with water so that the amount of the effective ingredient in 105 liters of the spraying liquid could be equal to the used amount shown in Table 6, and the liquid was sprayed above the plant by the aid of a CO2-pressurized back pack sprayer to the test area at a rate of 105 liters per hectare.
as §3, §4

## COCc1cccc(C(O)c2nc(OC)cc(OC)n2)c1NS(=O)(=O)C(F)F (stereo not drawn) [Pyrimisulfan, pyrimisulfan]
Sugarcane [1]; after 15 days of spraying
  ATR increased rate from the initial day of spraying: 5.5%
  Brix increased rate from the initial day of spraying: 5.8%
  Concentration of soluble solid matter, Brix: 17.4%
  Total sugar amount recoverable from 1 kg of stem, ATR: 120.1 g
Sugarcane [1]; after 30 days of spraying
  ATR increased rate from the initial day of spraying: 9.5%
  Brix increased rate from the initial day of spraying: 7.6%
  Concentration of soluble solid matter, Brix: 17.7%
  Total sugar amount recoverable from 1 kg of stem, ATR: 124.6 g
Sugarcane [1]; after 45 days of spraying
  ATR increased rate from the initial day of spraying: 12.6%
  Brix increased rate from the initial day of spraying: 8.2%
  Concentration of soluble solid matter, Brix: 17.8%
  Total sugar amount recoverable from 1 kg of stem, ATR: 128.1 g

## gibberellin
Sugarcane [2]; after 15 days of spraying
  ATR increased rate from the initial day of spraying: 5.3%
  Brix increased rate from the initial day of spraying: 5.5%
  Concentration of soluble solid matter, Brix: 17.2%
  Total sugar amount recoverable from 1 kg of stem, ATR: 120.5 g
Sugarcane [2]; after 30 days of spraying
  ATR increased rate from the initial day of spraying: 11.7%
  Brix increased rate from the initial day of spraying: 8.9%
  Concentration of soluble solid matter, Brix: 17.8%
  Total sugar amount recoverable from 1 kg of stem, ATR: 127.9 g
Sugarcane [2]; after 45 days of spraying
  ATR increased rate from the initial day of spraying: 3.8%
  Brix increased rate from the initial day of spraying: 3.1%
  Concentration of soluble solid matter, Brix: 16.8%
  Total sugar amount recoverable from 1 kg of stem, ATR: 118.8 g

## COc1cc(OC)nc(Oc2cccc(Oc3nc(OC)cc(OC)n3)c2C(=O)ON=C(c2ccccc2)c2ccccc2)n1 [Pyribenzoxim, pyribenzoxim]
Sugarcane [3]; after 15 days of spraying
  ATR increased rate from the initial day of spraying: 14.2%
  Brix increased rate from the initial day of spraying: 10.9%
  Concentration of soluble solid matter, Brix: 17.8%
  Total sugar amount recoverable from 1 kg of stem, ATR: 128.1 g
Sugarcane [3]; after 30 days of spraying
  ATR increased rate from the initial day of spraying: 10.2%
  Brix increased rate from the initial day of spraying: 9.1%
  Concentration of soluble solid matter, Brix: 17.5%
  Total sugar amount recoverable from 1 kg of stem, ATR: 123.6 g
Sugarcane [3]; after 45 days of spraying
  ATR increased rate from the initial day of spraying: 22.0%
  Brix increased rate from the initial day of spraying: 19.7%
  Concentration of soluble solid matter, Brix: 19.2%
  Total sugar amount recoverable from 1 kg of stem, ATR: 136.8 g
